One compound from patent US20250387356A1 (SpringWorks Therapeutics, Inc., priority 2024, published 2025) can be followed below.

Data set [1] has as its system NF1-associated plexiform neurofibromas (PNs). Briefly: Phase 2b trial of mirdametinib in adult and pediatric patients: confirmed objective response by BICR volumetric MRI per REiNS criteria. The class given is in vivo, human. As for the experimental part:
Study treatment was administered orally at a twice daily (BID) dose specified in the table below. Dosing was on a 28-day Cycle (4-week course) with a 3 week on/1 week off schedule. The treatment period will last for up to 24 Cycles followed by a 30-day Safety Follow-Up period.
A partial response was defined as PN decrease ≥20% compared to baseline using centrally read MRI volumetric analysis.
The major efficacy outcome measure was confirmed objective response rate (ORR), defined as the percentage of patients with complete response (disappearance of the target PN) or confirmed partial response ([…]). Responses were assessed by blinded independent central review (BICR) using volumetric magnetic resonance imaging (MRI) analysis per Response Evaluation in Neurofibromatosis and Schwannomatosis (REiNS) criteria. A secondary efficacy objective was to determine the duration of response for patients who achieved a confirmed objective response.

Data set [2] can be described thus: Mirdametinib pharmacokinetic parameters (Table A): exposure, absorption, food effect, distribution, elimination. It is filed as in vivo. The note with it: human, plasma, oral.

As a reminder, the half-life is the time needed for the level to fall by half in the phase considered. With `O=C(NOC[C@H](O)CO)c1ccc(F)c(F)c1Nc1ccc(I)cc1F` (single isomer, unassigned) [mirdametinib], the results for the “ORR, also considering patients who achieved a confirmed objective response after cycle 24” value in data set [1] (adults) and in data set [1] (pediatric patients) were 45% and 54%, respectively. Moreover, the clearance in data set [2] (read-out: Apparent systemic clearance [Mean (% CV)] (converted)) was 106 mL/min. In addition, in data set [2] (read-out: Apparent volume of distribution [Mean (% CV)]), the Vd came out at 255 L. The half-life in data set [2] (read-out: Terminal elimination half-life [Mean (% CV)] (converted)) is 1680 min.
